Assay results published in PubChem BioAssay (NCI).
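Cultured in 96-well plates, cells were exposed to test compound for 48 hours across five concentrations. TGI marks complete inhibition of growth.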

Assays:
Experiment in all cases: DTP human tumour cell line panel, 48 h
A498 renal = tested on: A498 renal
A549 NSCLC = tested on: A549 NSCLC
ACHN renal = tested on: ACHN renal
CAKI-1 renal = tested on: CAKI-1 renal
CCRF-CEM leukemia = tested on: CCRF-CEM leukemia
COLO 205 colon = tested on: COLO 205 colon
DU-145 prostate = tested on: DU-145 prostate
EKVX NSCLC = tested on: EKVX NSCLC
HCC-2998 colon = tested on: HCC-2998 colon
HCT-116 colon = tested on: HCT-116 colon
HCT-15 colon = tested on: HCT-15 colon
HL-60(TB) leukemia = tested on: HL-60(TB) leukemia
HOP-62 NSCLC = tested on: HOP-62 NSCLC
HOP-92 NSCLC = tested on: HOP-92 NSCLC
HT29 colon = tested on: HT29 colon
IGROV1 ovarian = tested on: IGROV1 ovarian
K-562 leukemia = tested on: K-562 leukemia
LOX IMVI melanoma = tested on: LOX IMVI melanoma
M14 melanoma = tested on: M14 melanoma
MALME-3M melanoma = tested on: MALME-3M melanoma
MCF7 breast = tested on: MCF7 breast
MDA-MB-231 breast = tested on: MDA-MB-231 breast
MDA-MB-435 = tested on: MDA-MB-435
MDA-N = tested on: MDA-N
MOLT-4 leukemia = tested on: MOLT-4 leukemia
NCI-H460 lung = tested on: NCI-H460 lung
NCI-H522 lung = tested on: NCI-H522 lung
NCI/ADR-RES ovarian = tested on: NCI/ADR-RES ovarian
OVCAR-3 ovarian = tested on: OVCAR-3 ovarian
OVCAR-4 ovarian = tested on: OVCAR-4 ovarian
OVCAR-5 ovarian = tested on: OVCAR-5 ovarian
OVCAR-8 ovarian = tested on: OVCAR-8 ovarian
PC-3 prostate = tested on: PC-3 prostate
RPMI-8226 leukemia = tested on: RPMI-8226 leukemia
SF-268 CNS = tested on: SF-268 CNS
SF-295 CNS = tested on: SF-295 CNS
SK-MEL-28 melanoma = tested on: SK-MEL-28 melanoma
SK-MEL-5 melanoma = tested on: SK-MEL-5 melanoma
SK-OV-3 ovarian = tested on: SK-OV-3 ovarian
SNB-19 CNS = tested on: SNB-19 CNS
SR leukemia = tested on: SR leukemia
SW-620 colon = tested on: SW-620 colon
T-47D breast = tested on: T-47D breast
TK-10 renal = tested on: TK-10 renal
U251 CNS = tested on: U251 CNS
UACC-257 melanoma = tested on: UACC-257 melanoma
UACC-62 melanoma = tested on: UACC-62 melanoma
UO-31 renal = tested on: UO-31 renal
786-0 renal = tested on: 786-0 renal
KM12 colon = tested on: KM12 colon
NCI-H226 lung = tested on: NCI-H226 lung
NCI-H23 lung = tested on: NCI-H23 lung
RXF 393 renal = tested on: RXF 393 renal
SF-539 CNS = tested on: SF-539 CNS
SK-MEL-2 melanoma = tested on: SK-MEL-2 melanoma
SN12C renal = tested on: SN12C renal
SNB-75 CNS = tested on: SNB-75 CNS

COc1ccc2c(=O)c(O)c(-c3ccc(OC)c(OC)c3)oc2c1
TGI (A498 renal): > 100 µM
TGI (A549 NSCLC): > 100 µM
TGI (ACHN renal): > 100 µM
TGI (CAKI-1 renal): 13 µM
TGI (CCRF-CEM leukemia): > 100 µM
TGI (COLO 205 colon): > 100 µM
TGI (DU-145 prostate): > 100 µM
TGI (EKVX NSCLC): > 100 µM
TGI (HCC-2998 colon): > 100 µM
TGI (HCT-116 colon): > 100 µM
TGI (HCT-15 colon): > 100 µM
TGI (HL-60(TB) leukemia): 5.22 µM
TGI (HOP-62 NSCLC): 36.1 µM
TGI (HOP-92 NSCLC): 9.17 µM
TGI (HT29 colon): > 100 µM
TGI (IGROV1 ovarian): > 100 µM
TGI (K-562 leukemia): > 100 µM
TGI (LOX IMVI melanoma): > 100 µM
TGI (M14 melanoma): > 100 µM
TGI (MALME-3M melanoma): > 100 µM
TGI (MCF7 breast): > 100 µM
TGI (MDA-MB-231 breast): > 100 µM
TGI (MDA-MB-435): > 100 µM
TGI (MDA-N): > 100 µM
TGI (MOLT-4 leukemia): > 100 µM
TGI (NCI-H460 lung): > 100 µM
TGI (NCI-H522 lung): 46 µM
TGI (NCI/ADR-RES ovarian): 8.25 µM
TGI (OVCAR-3 ovarian): 11.9 µM
TGI (OVCAR-4 ovarian): 0.599 µM
TGI (OVCAR-5 ovarian): > 100 µM
TGI (OVCAR-8 ovarian): > 100 µM
TGI (PC-3 prostate): > 100 µM
TGI (RPMI-8226 leukemia): > 100 µM
TGI (SF-268 CNS): > 100 µM
TGI (SF-295 CNS): 33.1 µM
TGI (SK-MEL-28 melanoma): > 100 µM
TGI (SK-MEL-5 melanoma): > 100 µM
TGI (SK-OV-3 ovarian): > 100 µM
TGI (SNB-19 CNS): > 100 µM
TGI (SR leukemia): > 100 µM
TGI (SW-620 colon): > 100 µM
TGI (T-47D breast): > 100 µM
TGI (TK-10 renal): 45.8 µM
TGI (U251 CNS): > 100 µM
TGI (UACC-257 melanoma): > 100 µM
TGI (UACC-62 melanoma): > 100 µM
TGI (UO-31 renal): > 100 µM

NNC(=O)Nc1cccnc1
TGI (786-0 renal): > 100 µM
TGI (A498 renal): > 100 µM
TGI (A549 NSCLC): > 100 µM
TGI (ACHN renal): > 100 µM
TGI (CAKI-1 renal): > 100 µM
TGI (CCRF-CEM leukemia): > 100 µM
TGI (COLO 205 colon): > 100 µM
TGI (DU-145 prostate): > 100 µM
TGI (EKVX NSCLC): > 100 µM
TGI (HCC-2998 colon): > 100 µM
TGI (HCT-116 colon): > 100 µM
TGI (HCT-15 colon): > 100 µM
TGI (HL-60(TB) leukemia): > 100 µM
TGI (HOP-62 NSCLC): > 100 µM
TGI (HOP-92 NSCLC): > 100 µM
TGI (HT29 colon): > 100 µM
TGI (IGROV1 ovarian): > 100 µM
TGI (K-562 leukemia): > 100 µM
TGI (KM12 colon): > 100 µM
TGI (LOX IMVI melanoma): > 100 µM
TGI (M14 melanoma): > 100 µM
TGI (MALME-3M melanoma): > 100 µM
TGI (MCF7 breast): > 100 µM
TGI (MDA-MB-231 breast): > 100 µM
TGI (MDA-MB-435): > 100 µM
TGI (MDA-N): > 100 µM
TGI (NCI-H226 lung): > 100 µM
TGI (NCI-H23 lung): > 100 µM
TGI (NCI-H522 lung): > 100 µM
TGI (NCI/ADR-RES ovarian): > 100 µM
TGI (OVCAR-3 ovarian): > 100 µM
TGI (OVCAR-4 ovarian): > 100 µM
TGI (OVCAR-5 ovarian): > 100 µM
TGI (OVCAR-8 ovarian): > 100 µM
TGI (PC-3 prostate): > 100 µM
TGI (RPMI-8226 leukemia): > 100 µM
TGI (RXF 393 renal): > 100 µM
TGI (SF-295 CNS): > 100 µM
TGI (SF-539 CNS): > 100 µM
TGI (SK-MEL-2 melanoma): > 100 µM
TGI (SK-MEL-28 melanoma): > 100 µM
TGI (SK-MEL-5 melanoma): > 100 µM
TGI (SK-OV-3 ovarian): > 100 µM
TGI (SN12C renal): > 100 µM
TGI (SNB-19 CNS): > 100 µM
TGI (SNB-75 CNS): > 100 µM
TGI (SW-620 colon): > 100 µM
TGI (T-47D breast): > 100 µM
TGI (TK-10 renal): > 100 µM
TGI (U251 CNS): > 100 µM
TGI (UACC-257 melanoma): > 100 µM
TGI (UACC-62 melanoma): > 100 µM
TGI (UO-31 renal): > 100 µM
